The values below come from patent publication US8435978B2, “Substituted sulfonamide compounds” (Gruenenthal GmbH, priority 2006, dated 2013).

For one experiment, the target named is T1, human B1R receptor (Homo sapiens, UniProt P46663).
T1 construct: host or cells: CHO K1 cells (Chinese hamster ovary), stably transfected
T1 sequence (P46663 1-353): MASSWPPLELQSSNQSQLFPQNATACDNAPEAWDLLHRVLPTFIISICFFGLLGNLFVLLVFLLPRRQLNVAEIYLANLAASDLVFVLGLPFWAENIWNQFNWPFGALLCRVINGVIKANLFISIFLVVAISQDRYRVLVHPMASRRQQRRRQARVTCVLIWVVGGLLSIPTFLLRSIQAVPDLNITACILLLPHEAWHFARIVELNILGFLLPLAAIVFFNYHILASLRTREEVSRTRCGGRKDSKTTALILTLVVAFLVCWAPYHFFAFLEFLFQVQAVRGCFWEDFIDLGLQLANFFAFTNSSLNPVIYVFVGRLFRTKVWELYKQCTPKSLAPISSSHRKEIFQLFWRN
As to the kind of experiment: Functional study on the bradykinin receptor 1 (B1R), FLIPR Ca2+ assay, hB1R cells. The class given is cell-based. Particulars: CHO-K1, test substance 10 μM, agonist Lys-Des-Arg9-bradykinin 0.5 nM, % inhibition compared with the maximum achievable inhibition, read-out: B1R Antagonism, human [10 μM] % Inhibition. In short, it runs like this: (§1)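 FLIPR Ca2+ assay in recombinant CHO K1 cells (human or rat B1R), Fluo-4 dye; 10 μM compound, 10 min, then EC-level agonist per species (0.5 nM Lys-Des-Arg9-BK human / 100 nM Des-Arg9-BK rat). Output: % inhibition vs maximum.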

In another experiment the target is T2, B1R receptor of the rat (Rattus norvegicus, UniProt P97583).
T2 construct: host or cells: CHO K1 cells (Chinese hamster ovary), stably transfected
T2 sequence (P97583 1-337): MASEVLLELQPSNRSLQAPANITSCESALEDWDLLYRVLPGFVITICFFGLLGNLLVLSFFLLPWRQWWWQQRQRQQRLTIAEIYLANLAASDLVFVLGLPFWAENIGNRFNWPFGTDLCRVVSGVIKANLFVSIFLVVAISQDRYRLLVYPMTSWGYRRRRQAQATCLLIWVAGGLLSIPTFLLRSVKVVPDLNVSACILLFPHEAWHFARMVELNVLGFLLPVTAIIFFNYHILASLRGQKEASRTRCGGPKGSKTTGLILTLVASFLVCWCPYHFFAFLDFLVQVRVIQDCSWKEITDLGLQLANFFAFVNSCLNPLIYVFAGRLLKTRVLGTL
Nature of the experiment: Functional study on the bradykinin receptor 1 (B1R), FLIPR Ca2+ assay, rB1R cells. Format: cell-based. Particulars: CHO-K1, test substance 10 μM, agonist Des-Arg9-bradykinin 100 nM, % inhibition compared with the maximum achievable inhibition, read-out: B1R Antagonism, rat [10 μM] % Inhibition. In short, it runs like this:
as §1

Molecules are shown by their SMILES.

`COc1cc(C)c(S(=O)(=O)N2CCCCC2COCC(=O)NCCN2CCCC2)c(C)c1` (stereo not shown) [Example 343, 2-((1-(4-methoxy-2,6-dimethylphenylsulfonyl)piperidin-2-yl)methoxy)-N-(2-(pyrrolidin-1-yl)ethyl)acetamide]: the inhibition at 10 µM on human B1R receptor is 80%; at B1R receptor of the rat, 100%.

As for `O=C(COCC1CCCCN1S(=O)(=O)c1c(Cl)cccc1Cl)N1CCN(Cc2ccc(Br)cc2)CC1` (stereo not shown) [Example 406, 1-(4-(4-bromobenzyl)piperazin-1-yl)-2-((1-(2,6-dichlorophenylsulfonyl)piperidin-2-yl)methoxy)ethanone], the inhibition at 10 µM came out at 103% on human B1R receptor and 100% at B1R receptor of the rat.

Turning to `O=C(COCC1CCCN1S(=O)(=O)c1cc(Cl)sc1Cl)N1CCN(Cc2ccccc2)CC1` (stereo not shown) [Example 478, 1-(4-benzylpiperazin-1-yl)-2-((1-(2,5-dichlorothiophen-3-ylsulfonyl)pyrrolidin-2-yl)methoxy)ethanone], the inhibition at 10 µM on human B1R receptor amounted to 36.2%; at B1R receptor of the rat, 90.2%.

Turning to `O=C(COCC1CCCCN1S(=O)(=O)c1c(Cl)cccc1Cl)N1CCC(c2ccncc2)C1` (stereo not shown) [Example 282, 2-((1-(2,6-dichlorophenylsulfonyl)piperidin-2-yl)methoxy)-1-(3-(pyridin-4-yl)pyrrolidin-1-yl)ethanone], the inhibition at 10 µM at human B1R receptor is 103%; at B1R receptor of the rat it was 86%.

On to `CN(C(=O)COCC1CCCCN1S(=O)(=O)c1c(Cl)cc(Cl)cc1Cl)C(CN1CCCC1)c1ccccc1` (stereo not shown) [Example 392, N-methyl-N-(1-phenyl-2-(pyrrolidin-1-yl)ethyl)-2-((1-(2,4,6-trichlorophenylsulfonyl)piperidin-2-yl)methoxy)acetamide], for which the inhibition at 10 µM at human B1R receptor was found to be 101%; at B1R receptor of the rat, 99.1%.

Turning to `O=C(COCC1CCCN1S(=O)(=O)c1c(Cl)cc(Cl)cc1Cl)N1CCC(N2CCCC2)CC1` (stereo not shown) [Example 296, 1-(4-(pyrrolidin-1-yl)piperidin-1-yl)-2-((1-(2,4,6-trichlorophenylsulfonyl)pyrrolidin-2-yl)methoxy)ethanone], the results for the inhibition at 10 µM on human B1R receptor and at B1R receptor of the rat were 106% and 99.3%, respectively.

`COc1cc(C)c(S(=O)(=O)N2CCCCC2COCC(=O)N2CCN(C)CC2c2ccccc2)c(C)c1` (stereo not shown) [Example 388, 2-((1-(4-methoxy-2,6-dimethylphenylsulfonyl)piperidin-2-yl)methoxy)-1-(4-methyl-2-phenylpiperazin-1-yl)ethanone]: the inhibition at 10 µM was 22.9% on human B1R receptor and 101% at B1R receptor of the rat.

In the case of `COc1ccc(C2CCCCN2C(=O)COCC2CCCCN2S(=O)(=O)c2c(C)cc(C)cc2C)cn1` (stereo not shown) [Example 227, 2-((1-(mesitylsulfonyl)piperidin-2-yl)methoxy)-1-(2-(6-methoxypyridin-3-yl)piperidin-1-yl)ethanone], the inhibition at 10 µM on human B1R receptor was determined as 26.9%; at B1R receptor of the rat, 94.5%.

Regarding `COc1cc(C)c(S(=O)(=O)N2CCCC2COCC(=O)NC(CN2CCOCC2)c2ccccc2)c(C)c1` (stereo not shown) [Example 500, 2-((1-(4-methoxy-2,6-dimethylphenylsulfonyl)pyrrolidin-2-yl)methoxy)-N-(2-morpholino-1-phenylethyl)acetamide], the inhibition at 10 µM on human B1R receptor turned out to be 41.8%; at B1R receptor of the rat it was 93.2%.

Consider `CCN(CCCNC(=O)COCC1CCCCN1S(=O)(=O)c1c(C)cc(OC)cc1C)c1ccccc1` (stereo not shown) [Example 424, N-(3-(ethyl(phenyl)amino)propyl)-2-((1-(4-methoxy-2,6-dimethylphenylsulfonyl)piperidin-2-yl)methoxy)acetamide], for which the inhibition at 10 µM amounted to 35.1% on human B1R receptor and 97.6% at B1R receptor of the rat.

As for `COc1cc(C)c(S(=O)(=O)N2CCCCC2COCC(=O)N2CCN(c3ccc(F)cc3)CC2)c(C)c1` (stereo not shown) [Example 289, 1-(4-(4-fluorophenyl)piperazin-1-yl)-2-((1-(4-methoxy-2,6-dimethylphenylsulfonyl)piperidin-2-yl)methoxy)ethanone], the figures for the inhibition at 10 µM at human B1R receptor and at B1R receptor of the rat were 103% and 95.5%, respectively.

For `Cc1cccc(N(Cc2ccccc2)C(=O)COCC2CCCCN2S(=O)(=O)c2cc(Cl)sc2Cl)n1` (stereo not shown) [Example 515, N-benzyl-2-((1-(2,5-dichlorothiophen-3-ylsulfonyl)piperidin-2-yl)methoxy)-N-(6-methylpyridin-2-yl)acetamide], the inhibition at 10 µM at human B1R receptor is 30.9%; on B1R receptor of the rat, 100%.

With `COc1cc(C)c(S(=O)(=O)N2CCCC2COCC(=O)NCc2ccc(CN3CCOCC3)cc2)c(C)c1` (stereo not shown) [Example 55, 2-[1-(4-methoxy-2,6-dimethyl-phenylsulfonyl)-pyrrolidin-2-ylmethoxy]-N-(4-morpholin-4-ylmethyl-benzyl)-acetamide], the inhibition at 10 µM on human B1R receptor came out at 63.2%; at B1R receptor of the rat, 88.8%.

Take `COc1cc(C)c(S(=O)(=O)N2CCC[C@H]2COCC(=O)N2CCN(CC3CCN(C)CC3)CC2)c(C)c1` [Example 181, (S)-2-((1-(4-methoxy-2,6-dimethylphenylsulfonyl)pyrrolidin-2-yl)methoxy)-1-(4-((1-methylpiperidin-4-yl)methyl)piperazin-1-yl)ethanone]: the inhibition at 10 µM is 105% on human B1R receptor and 98.5% on B1R receptor of the rat.

For the compound `COc1cc(C)c(S(=O)(=O)N2Cc3ccccc3CC2COCC(=O)N2CCN(CC3CCN(C)CC3)CC2)c(C)c1C` (stereo not shown) [Example 563, 2-((2-(4-methoxy-2,3,6-trimethylphenylsulfonyl)-1,2,3,4-tetrahydroisoquinolin-3-yl)methoxy)-1-(4-((1-methylpiperidin-4-yl)methyl)piperazin-1-yl)ethanone], the inhibition at 10 µM at human B1R receptor was 102%; at B1R receptor of the rat, 100%.

Regarding `COc1cc(C)c(S(=O)(=O)N2Cc3ccccc3C[C@H]2COCC(=O)N2CCN(C3CCN(C)CC3)CC2)c(C)c1` [Example 127, (S)-2-((2-(4-methoxy-2,6-dimethylphenylsulfonyl)-1,2,3,4-tetrahydroisoquinolin-3-yl)methoxy)-1-(4-(1-methylpiperidin-4-yl)piperazin-1-yl)ethanone], the figures for the inhibition at 10 µM on human B1R receptor and at B1R receptor of the rat were 102% and 93.7%, respectively.

For the compound `COc1cc(C)c(S(=O)(=O)N2CCCCC2COCC(=O)NCc2cccc(Oc3cnccn3)c2)c(C)c1` (stereo not shown) [Example 195, 2-((1-(4-methoxy-2,6-dimethylphenylsulfonyl)piperidin-2-yl)methoxy)-N-(3-(pyrazin-2-yloxy)benzyl)acetamide], the inhibition at 10 µM at human B1R receptor turned out to be 85.1%; on B1R receptor of the rat it was 98.8%.

As for `COc1ccc(S(=O)(=O)N2CCCCC2COCC(=O)N2CCN(CCOc3ccccc3)CC2)cc1` (stereo not shown) [Example 558, 2-((1-(4-methoxyphenylsulfonyl)piperidin-2-yl)methoxy)-1-(4-(2-phenoxyethyl)piperazin-1-yl)ethanone], the inhibition at 10 µM at human B1R receptor is -3.53%; at B1R receptor of the rat, 103%.

Regarding `CN1CCC(N2CCN(C(=O)COCC3CCc4ccccc4N3S(=O)(=O)c3ccc4ccccc4c3)CC2)CC1` (stereo not shown) [Example 203, 1-(4-(1-methylpiperidin-4-yl)piperazin-1-yl)-2-((1-(naphthalen-2-ylsulfonyl)-1,2,3,4-tetrahydroquinolin-2-yl)methoxy)ethanone], the inhibition at 10 µM at human B1R receptor was determined as 103%; at B1R receptor of the rat, 98.8%.

In the case of `O=C(COCC1CCCCN1S(=O)(=O)c1c(Cl)cccc1Cl)N1CCN(c2nc3ccc(Cl)cc3s2)CC1` (stereo not shown) [Example 554, 1-(4-(6-chlorobenzo[d]thiazol-2-yl)piperazin-1-yl)-2-((1-(2,6-dichlorophenylsulfonyl)piperidin-2-yl)methoxy)ethanone], the inhibition at 10 µM on human B1R receptor was found to be 25.2%; at B1R receptor of the rat, 102%.

As to `CN1CCC(N2CCN(C(=O)COCC3CCCCN3S(=O)(=O)c3cccc(Br)c3)CC2)CC1` (stereo not shown) [Example 121, 2-((1-(3-bromophenylsulfonyl)piperidin-2-yl)methoxy)-1-(4-(1-methylpiperidin-4-yl)piperazin-1-yl)ethanone], the values for the inhibition at 10 µM at human B1R receptor and at B1R receptor of the rat were 70.5% and 52.7%, respectively.

On to `O=C(COCC1CCCN1S(=O)(=O)c1c(Cl)cc(Cl)cc1Cl)N1CCN(c2ccncc2)CC1` (stereo not shown) [Example 335, 1-(4-(pyridin-4-yl)piperazin-1-yl)-2-((1-(2,4,6-trichlorophenylsulfonyl)pyrrolidin-2-yl)methoxy)ethanone], for which the inhibition at 10 µM was 106% on human B1R receptor and 99.8% on B1R receptor of the rat.

As to `Cc1cc(C)c(S(=O)(=O)N2CCCCC2COCC(=O)N2CCN(CC3CCN(C)CC3)CC2)c(C)c1` (stereo not shown) [Example 232, 2-((1-(mesitylsulfonyl)piperidin-2-yl)methoxy)-1-(4-((1-methylpiperidin-4-yl)methyl)piperazin-1-yl)ethanone], the inhibition at 10 µM at human B1R receptor turned out to be 102%; at B1R receptor of the rat it was 90%.
